Where a name gives a salt, the structure may show the parent alone. Read-outs that look alike come from different tables or passages of the source.
Columns and labels:
Nrf2-ARE activity = type: cell-based
[1] = system: Nrf2-ARE activity in HepG2 cells; type: cell-based, human; details: for ARE-luciferase activity with Nrf2 activator: HepG2 cells treated with both drug and iAs3+ (FIG. 2A, FIG. 3); for inhibitory effect on ARE-luciferase activity: HepG2 cells, basal conditions (FIG. 2A, FIG. 3)
[2] = system: Nrf2-ARE-dependent gene expression (HO1, GCLM, SRX); details: THP-1 cells, concentration-dependent
[3] = system: Nrf2-ARE activity in HaCaT cells; type: cell-based, human
[4] = system: Nrf2-ARE-dependent gene expression (Ho1); test: RT-qPCR of ARE-dependent gene in HepG2 cells; details: concentration-dependent, basal (FIG. 2B)
[5] = system: Nrf2-ARE activity in 3T3-L1 preadipocytes; type: cell-based, mouse
[6] = system: Nrf2-ARE-dependent gene expression (Gclc, Nqo1, Ho1); test: RT-qPCR of ARE-dependent genes in 3T3-L1 preadipocytes; details: 10 mM
[7] = iAs3+-treated or tBHQ-treated conditions

Compound	inhibitory effect on ARE-luciferase activity (Nrf2-ARE activity; basal conditions)	inhibitory effect on ARE-luciferase activity (Nrf2-ARE activity; [7])	also measured
NNC(=O)c1ccco1 [2-Furoic hydrazide]	concentration-dependent inhibitory effect	concentration-dependent inhibitory effect	
Nc1cnccn1 [Aminopyrazine]	concentration-dependent inhibitory effect	concentration-dependent inhibitory effect	
CC[C@@H](CO)NCCN[C@@H](CC)CO [Ethambutol dihydrochloride]	concentration-dependent inhibitory effect		
CCc1cc(C(N)=S)ccn1 [Ethionamide]			ARE-luciferase activity with Nrf2 activator [1]: substantial ARE-luciferase activity; inhibitory effect on ARE-luciferase activity [1]: concentration-dependent inhibitory effect; gene expression (mRNA) of Heme oxygenase (HO1) ([2]; basal (FIG. 4A)): suppresses; gene expression (mRNA) of GCLM ([2]; basal (FIG. 4B)): suppresses; gene expression (mRNA) of sulfiredoxin (SRX) ([2]; basal (FIG. 4C)): suppresses
NNC(=O)c1ccncc1 [Isoniazid]			ARE-luciferase activity with Nrf2 activator [1]: substantial ARE-luciferase activity; inhibitory effect on ARE-luciferase activity [1]: concentration-dependent inhibitory effect; Nrf2-ARE-inhibitory effect (ARE-luciferase) [3]: Nrf2-ARE-inhibitory effect of isoniazid was also observed; gene expression of Heme oxygenase (Ho1) [4]: suppresses; ARE-luciferase activity with Nrf2 activator ([5]; 3T3-L1 cells treated with both drug and iAs3+ (FIG. 1A)): substantial ARE-luciferase activity; inhibitory effect on ARE-luciferase activity ([5]; 3T3-L1 cells, basal conditions, 1 mM to 50 mM (FIG. 1A)): concentration-dependent inhibitory effect; gene expression of glutamate-cysteine ligase catalytic subunit (Gclc) ([6]; basal (FIG. 1B)): suppresses; gene expression of NAD(P)H dehydrogenase [quinone] 1 (Ngo1) ([6]; basal (FIG. 1C)): suppresses; gene expression of Heme oxygenase (Ho1) ([6]; basal (FIG. 1D)): suppresses
NNC(=O)Cc1ccccc1 [Phenylacetic hydrazide]	concentration-dependent inhibitory effect	concentration-dependent inhibitory effect	
NNc1ccccc1 [Phenylhydrazine]	concentration-dependent inhibitory effect	concentration-dependent inhibitory effect	
NC(=O)c1cnccn1 [Pyrazinecarboxamide]	concentration-dependent inhibitory effect	concentration-dependent inhibitory effect	
C[C@@H]1CN(c2c(F)c(N)c3c(=O)c(C(=O)O)cn(C4CC4)c3c2F)C[C@H](C)N1 [Sparfloxacin]	concentration-dependent inhibitory effect		
Cc1ccc(C(=O)NN)cc1 [p-Toluic hydrazide]	concentration-dependent inhibitory effect	concentration-dependent inhibitory effect	
